The source made the active and inactive calls. The calls are words filed in the database; no cut-off is given here.
Key:
Mus musculus [1] = assay: Neurotoxicity in Mus musculus albino (mouse) assessed as minimal motor impairment at 300 mg/kg, ip after 0.5 hr by rotarod test; type: toxicity, organism-based; set-up: dose 300 mg/kg, route intraperitoneal; settings: in vivo
Mus musculus [2] = assay: Anticonvulsant activity in Mus musculus albino (mouse) assessed as protection against maximal electroshock-induced seizure at 300 mg/kg, ip after 0.5 hr; type: functional, organism-based; set-up: dose 300 mg/kg
Mus musculus [3] = assay: Neurotoxicity in Mus musculus albino (mouse) assessed as minimal motor impairment at 300 mg/kg, ip after 4 hr by rotarod test; type: toxicity, organism-based; set-up: dose 300 mg/kg, route intraperitoneal; settings: in vivo
Mus musculus [4] = assay: Anticonvulsant activity in ip dosed Mus musculus albino (mouse) assessed as protection against maximal electroshock-induced seizure after 4 hr; type: functional; settings: read-out: MED
Mus musculus [5] = assay: Anticonvulsant activity in Mus musculus albino (mouse) assessed as protection against subcutaneous metrazole-induced seizure at 300 mg/kg, ip after 0.5 hr; type: functional, organism-based; set-up: dose 300 mg/kg
Mus musculus [6] = assay: Anticonvulsant activity in ip dosed Mus musculus albino (mouse) assessed as protection against subcutaneous metrazole-induced seizure after 4 hr; type: functional; settings: read-out: MED
Mus musculus [7] = assay: Anticonvulsant activity in Mus musculus albino (mouse) assessed as protection against subcutaneous metrazole-induced seizure at 300 mg/kg, ip after 4 hr; type: functional, organism-based; set-up: dose 300 mg/kg
Mus musculus [8] = assay: Anticonvulsant activity in Mus musculus albino (mouse) assessed as protection against maximal electroshock-induced seizure at 300 mg/kg, ip after 4 hr; type: functional, organism-based; set-up: dose 300 mg/kg
Mus musculus [9] = assay: Neurotoxicity in ip dosed Mus musculus albino (mouse) assessed as minimal motor impairment after 0.5 hr by rotarod test; type: toxicity, organism-based; settings: in vivo
Mus musculus [10] = assay: Neurotoxicity in ip dosed Mus musculus albino (mouse) assessed as minimal motor impairment after 4 hr by rotarod test; type: toxicity, organism-based; settings: in vivo
Mus musculus [11] = assay: Anticonvulsant activity in ip dosed Mus musculus albino (mouse) assessed as protection against maximal electroshock-induced seizure after 0.5 hr; type: functional; settings: read-out: MED
Mus musculus [12] = assay: Anticonvulsant activity in ip dosed Mus musculus albino (mouse) assessed as protection against subcutaneous metrazole-induced seizure after 0.5 hr; type: functional; settings: read-out: MED

In the case of `CC(C)=CCC/C(C)=C\C=N/c1nnc(-c2ccc(Cl)cc2)o1`, the Activity (Mus musculus [1]) is reported as “Non-toxic”, the Activity (Mus musculus [2]) is reported as “inactive” and the Activity (Mus musculus [3]) is reported as “Non-toxic”. For the same compound, the minimal effective dose (Mus musculus [4]) was 300 mg/kg, the Activity (Mus musculus [5]) was “inactive” and the minimal effective dose (Mus musculus [6]) was 300 mg/kg.
With `COc1ccc(-c2nnc(/N=C\C=C(\C)CCC=C(C)C)o2)cc1` the Activity (Mus musculus [1]) was “Non-toxic”, the Activity (Mus musculus [2]) was “inactive” and the Activity (Mus musculus [3]) was “Non-toxic”. The Activity (Mus musculus [7]) was “inactive”, the Activity (Mus musculus [5]) was “inactive” and the Activity (Mus musculus [8]) was “inactive”.
In the case of `CC(C)=CCC/C(C)=C\C=N/NC(=O)Nc1nnc(-c2ccc(C)cc2)o1`, the Activity (Mus musculus [1]) is reported as “Non-toxic”, the Activity (Mus musculus [2]) is reported as “inactive” and the Activity (Mus musculus [3]) is reported as “Non-toxic”. For the same compound, the minimal effective dose (Mus musculus [4]) was 300 mg/kg, the Activity (Mus musculus [7]) was “inactive” and the Activity (Mus musculus [5]) was “inactive”.
With `NC(=O)N1c2ccccc2C=Cc2ccccc21` [CARBAMAZEPINE] the minimal effective dose (Mus musculus [4]) was 100 mg/kg, the MTC (Mus musculus [9]) was 100 mg/kg and the MTC (Mus musculus [10]) was 300 mg/kg. It also gave a minimal effective dose (Mus musculus [6]) of 300 mg/kg, a minimal effective dose (Mus musculus [11]) of 30 mg/kg and a minimal effective dose (Mus musculus [12]) of 100 mg/kg.
`CC(C)=CCC/C(C)=C\C=N/c1nnc(-c2ccc(C)cc2)o1` was tested, and the Activity (Mus musculus [1]) was “Non-toxic”, the Activity (Mus musculus [2]) was “inactive” and the Activity (Mus musculus [3]) was “Non-toxic”. For the same compound, the Activity (Mus musculus [7]) was “inactive”, the Activity (Mus musculus [5]) was “inactive” and the Activity (Mus musculus [8]) was “inactive”.
`COc1ccc(-c2nnc(NC(=O)N/N=C\C=C(\C)CCC=C(C)C)o2)cc1` was tested, and the Activity (Mus musculus [1]) was “Non-toxic”, the Activity (Mus musculus [2]) was “inactive” and the Activity (Mus musculus [3]) was “Non-toxic”. For the same compound, the minimal effective dose (Mus musculus [4]) was 300 mg/kg, the Activity (Mus musculus [7]) was “inactive” and the Activity (Mus musculus [5]) was “inactive”.
Compound `CC(C)=CCC/C(C)=C\C=N/c1nnc(-c2ccccc2)o1` has a minimal effective dose (Mus musculus [4]) of 100 mg/kg, an MTC (Mus musculus [9]) of 300 mg/kg and an MTC (Mus musculus [10]) of 300 mg/kg. For the same compound, the minimal effective dose (Mus musculus [6]) was 300 mg/kg, the minimal effective dose (Mus musculus [11]) was 30 mg/kg and the minimal effective dose (Mus musculus [12]) was 300 mg/kg.
In the case of `CC(C)=CCC/C(C)=C\C=N/NC(=O)Nc1nnc(-c2ccccc2)o1`, the Activity (Mus musculus [1]) is reported as “Non-toxic”, the Activity (Mus musculus [2]) is reported as “inactive” and the Activity (Mus musculus [3]) is reported as “Non-toxic”. For the same compound, the minimal effective dose (Mus musculus [4]) was 300 mg/kg, the Activity (Mus musculus [7]) was “inactive” and the Activity (Mus musculus [5]) was “inactive”.
In the case of `O=C1NC(=O)C(c2ccccc2)(c2ccccc2)N1` [PHENYTOIN], the minimal effective dose (Mus musculus [4]) is reported as 30 mg/kg, the MTC (Mus musculus [9]) is reported as 100 mg/kg and the Activity (Mus musculus [7]) is reported as “inactive”. For the same compound, the MTC (Mus musculus [10]) was 100 mg/kg, the Activity (Mus musculus [5]) was “inactive” and the minimal effective dose (Mus musculus [11]) was 30 mg/kg.
With `CC(C)=CCC/C(C)=C\C=N/NC(=O)Nc1nnc(-c2ccc(Cl)cc2)o1` the Activity (Mus musculus [1]) was “Non-toxic”, the Activity (Mus musculus [3]) was “Non-toxic” and the Activity (Mus musculus [7]) was “inactive”. The Activity (Mus musculus [5]) was “inactive”, the Activity (Mus musculus [8]) was “inactive” and the minimal effective dose (Mus musculus [11]) was 30 mg/kg.
